The values that follow come from patent US20250145599A1, “CERTAIN CHEMICAL ENTITIES, COMPOSITIONS, AND METHODS” (Retune Pharma Inc., priority 2022, published 2025).

For assay [1], the target named is T1, IGF-1R (Homo sapiens, UniProt P08069). Description: IGF-1R biochemical assay (ADP-Glo). Conditions: read-out: IGF1R IC50. As for the experimental part:
The inhibitory activity against IGF-1R was measured using ADP-Glo assay. The percent (%) inhibition at each concentration of compound is calculated based on and relative to the luminescence signal in the Max and Min control wells contained within each assay plate. The Max control wells contain enzyme and substrate as 0% inhibition, and the Min control wells only contain substrate without enzyme as 100% inhibition. The concentrations and % inhibition values for tested compounds are plotted and the concentration of compound required for 50% inhibition (IC50) is determined with a four-parameter logistic dose response equation.
Table 3 provides IC50 data of representative compounds against IGF-1R using ADP-Glo assay. The IC50 data are designated within the following ranges: A: ≤0.10 μM, B: >0.10 μM to ≤1 μM, C: >1 μM to ≤20 μM

Assay [2] relates to Ba/F3-TEL-IGF-1R cells. Description: CellTiter-Glo luminescent cell viability assay. The following applies: cellular IC50, Ba/F3-TEL-IGF-1R cells. In kind it is cell-based. The protocol: The CellTiter-Glo luminescent cell viability assay was used to determine the inhibitory activity of the compounds against IGF-1R in Ba/F3-TEL-IGF-1R cells. […] The IC50 data are designated within the following ranges: A: ≤1 μM, B: >1 μM to ≤10 μM, C: >10 μM to ≤20 μM
For orientation: ATP-based viability assays read luminescence as a measure of living cells.

In assay [3] the test system is adrenocortical carcinoma. The following applies: Phase 3 study; cited from earlier work.
Assay [4] relates to tumor cell lines. The following applies: variety of tumor cell lines; cited from earlier work.
Assay [5] deals with T1, IGF-1R. Conditions: cited from earlier work.
Assay [6] has as its system IGF-1R-driven xenograft model. The following applies: orally once daily; cited from earlier work.
The subject of assay [7] is metastatic pancreatic cancer. Conditions: clinical trials, incl. metastatic pancreatic cancer; cited from earlier work.
Assay [8] deals with thyroid eye disease. The following applies: cited from earlier work.
Assay [9] concerns malignancies. The following applies: Phase I trials; cited from earlier work.

T1 sequence (P08069 31-1367): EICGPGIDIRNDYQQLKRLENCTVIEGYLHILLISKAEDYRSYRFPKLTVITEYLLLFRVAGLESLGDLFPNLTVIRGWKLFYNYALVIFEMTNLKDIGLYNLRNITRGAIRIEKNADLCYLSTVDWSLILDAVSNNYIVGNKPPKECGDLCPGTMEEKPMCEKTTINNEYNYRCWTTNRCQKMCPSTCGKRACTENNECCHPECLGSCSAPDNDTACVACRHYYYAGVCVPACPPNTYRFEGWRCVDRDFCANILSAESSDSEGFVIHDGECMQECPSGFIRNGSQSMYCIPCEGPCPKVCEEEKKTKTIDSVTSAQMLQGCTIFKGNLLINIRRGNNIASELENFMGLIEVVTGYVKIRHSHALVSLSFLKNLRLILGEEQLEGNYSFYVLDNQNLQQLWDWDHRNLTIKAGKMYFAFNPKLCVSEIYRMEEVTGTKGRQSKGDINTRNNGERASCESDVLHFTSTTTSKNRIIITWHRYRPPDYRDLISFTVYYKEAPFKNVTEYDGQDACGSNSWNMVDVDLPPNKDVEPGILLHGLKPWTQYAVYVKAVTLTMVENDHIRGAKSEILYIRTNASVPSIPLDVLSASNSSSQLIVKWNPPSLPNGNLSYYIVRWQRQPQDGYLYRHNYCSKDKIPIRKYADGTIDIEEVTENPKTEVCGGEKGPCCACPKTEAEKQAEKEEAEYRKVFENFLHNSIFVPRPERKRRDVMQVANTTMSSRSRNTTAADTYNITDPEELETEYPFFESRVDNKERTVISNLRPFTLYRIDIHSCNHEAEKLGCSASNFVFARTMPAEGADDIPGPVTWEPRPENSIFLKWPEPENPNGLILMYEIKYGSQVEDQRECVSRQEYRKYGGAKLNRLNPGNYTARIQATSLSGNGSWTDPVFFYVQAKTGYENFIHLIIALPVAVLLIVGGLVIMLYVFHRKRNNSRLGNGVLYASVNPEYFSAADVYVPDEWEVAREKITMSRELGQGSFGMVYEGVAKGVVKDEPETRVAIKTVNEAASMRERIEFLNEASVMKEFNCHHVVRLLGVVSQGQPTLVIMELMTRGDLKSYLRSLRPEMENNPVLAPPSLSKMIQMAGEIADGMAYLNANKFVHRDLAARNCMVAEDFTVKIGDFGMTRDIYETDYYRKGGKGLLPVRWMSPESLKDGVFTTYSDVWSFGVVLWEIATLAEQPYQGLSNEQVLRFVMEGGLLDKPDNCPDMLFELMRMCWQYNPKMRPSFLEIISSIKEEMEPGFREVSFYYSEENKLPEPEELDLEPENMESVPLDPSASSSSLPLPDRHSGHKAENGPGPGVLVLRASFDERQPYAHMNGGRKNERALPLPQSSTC

As usually defined, the IC50 is the concentration at which inhibition is half-maximal. For `COc1cc(-c2ccccc2)nc2c(F)c(-c3nn([C@H]4C[C@](C)(O)C4)c(N)c3C(N)=O)ccc12` [Example C045, 5-amino-3-(8-fluoro-4-methoxy-2-phenylquinolin-7-yl)-1-((lr,3r)-3-hydroxy-3-methylcyclobutyl)-1H-pyrazole-4-carboxamide], the values for the IC50 in assay [1] and in assay [2] were at most 100 nM and at most 1000 nM, respectively.
In the case of `COc1cc(-c2ccccc2F)nc2cc(-c3nn([C@H]4C[C@@](C)(O)C4)c(N)c3C(N)=O)ccc12` [Example C046, 5-amino-3-(2-(2-fluorophenyl)-4-methoxyquinolin-7-yl)-1-((1s,3s)-3-hydroxy-3-methylcyclobutyl)-1H-pyrazole-4-carboxamide], the IC50 in [1] was at most 100 nM; in assay [2], at most 1000 nM.
On to `COc1cc(-c2cccc(F)c2)nc2cc(-c3nn([C@H]4C[C@@](C)(O)C4)c(N)c3C(N)=O)ccc12` [Example C048, 5-amino-3-(2-(3-fluorophenyl)-4-methoxyquinolin-7-yl)-1-((1s,3s)-3-hydroxy-3-methylcyclobutyl)-1H-pyrazole-4-carboxamide], for which the IC50 in assay [1] is at most 100 nM; in assay [2], at most 1000 nM.
For `COc1cc(-c2ccccc2F)nc2c(F)c(-c3nn([C@H]4C[C@](C)(O)C4)c(N)c3C(N)=O)ccc12` [Example C050, 5-amino-3-(8-fluoro-2-(2-fluorophenyl)-4-methoxyquinolin-7-yl)-1-((1r,3r)-3-hydroxy-3-methylcyclobutyl)-1H-pyrazole-4-carboxamide] the same measures were at most 100 nM and at most 1000 nM.
For `COc1cc(-c2ccccc2)nc2cc(-c3nn([C@H]4C[C@@](C)(O)C4)c(N)c3C(N)=O)c(F)cc12` [Example C051, 5-amino-3-(6-fluoro-4-methoxy-2-phenylquinolin-7-yl)-1-((1s,3s)-3-hydroxy-3-methylcyclobutyl)-1H-pyrazole-4-carboxamide] the same measures were at most 100 nM and at most 1000 nM.
In the case of `C[C@]1(O)C[C@@H](n2nc(-c3ccc4ccc(-c5ccccc5F)nc4c3F)c(C(N)=O)c2N)C1` [Example C056, 5-amino-3-(8-fluoro-2-(2-fluorophenyl)quinolin-7-yl)-1-((1s,3s)-3-hydroxy-3-methylcyclobutyl)-1H-pyrazole-4-carboxamide], the IC50 in assay [1] was at most 100 nM; in assay [2], at most 1000 nM.
On the same counts, the results for `COc1c(F)c(-c2ccccc2F)nc2c(F)c(-c3nn([C@H]4C[C@@](C)(O)C4)c(N)c3C(N)=O)ccc12` [Example C061, 5-amino-3-(3,8-difluoro-2-(2-fluorophenyl)-4-methoxyquinolin-7-yl)-1-((1s,3s)-3-hydroxy-3-methylcyclobutyl)-1H-pyrazole-4-carboxamide] are at most 100 nM and at most 1000 nM.
Consider `COc1c(F)c(-c2ccccc2)nc2c(F)c(-c3nn([C@H]4C[C@@](C)(O)C4)c(N)c3C(N)=O)ccc12` [Example C062, 5-amino-3-(3,8-difluoro-4-methoxy-2-phenylquinolin-7-yl)-1-((1s,3s)-3-hydroxy-3-methylcyclobutyl)-1H-pyrazole-4-carboxamide], for which the figures for the IC50 in assay [1] and in [2] were at most 100 nM and at most 1000 nM, respectively.
On the same counts, the results for `COc1c(F)c(-c2ccccc2F)nc2cc(-c3nn([C@H]4C[C@@](C)(O)C4)c(N)c3C(N)=O)ccc12` [Example C063, 5-amino-3-(3-fluoro-2-(2-fluorophenyl)-4-methoxyquinolin-7-yl)-1-((1s,3s)-3-hydroxy-3-methylcyclobutyl)-1H-pyrazole-4-carboxamide] are at most 100 nM and at most 1000 nM.
Consider `C[C@]1(O)C[C@@H](c2nc(-c3ccc4ccc(-c5ccccc5)nc4c3)c3c(N)nccn32)C1` [OSI-906, Linsitinib], for which, in [3], the overall survival result was “did not increase overall survival”. The “in vitro antiproliferative effects” value in assay [4] is “in vitro antiproliferative effects”. For the same compound, the “inhibition of autophosphorylation of human IGF-1R” value in assay [5] was “potently and selectively inhibits autophosphorylation”. Also, the “in vivo anti-tumor efficacy” value in assay [6] is “robust in vivo anti-tumor efficacy”.
Consider ganitumab, for which the survival rates result in [7] was “largely ineffective at improving survival rates”.
With teprotumumab, in assay [8], the “inflammation in thyroid eye disease” value is given as “decrease inflammation”. Besides, in [9], the “effectiveness in treating malignancies” value was “little effectiveness”.
